Columns and labels:
Assay type in all cases: cell-based
cathepsin S mRNA = assay: RT-PCR assay of cathepsin S mRNA; details: normalized to GAPDH mRNA and DMSO
Protocol: (§1) An RT-PCR assay of cathepsin L1 mRNA was performed in treated Raji B-cells. More specifically, RNA was extracted from the DMSO, Entinostat, Vorinostat, and IFN-γ treated Raji B-cells described in Example 1 using an RNeasy Mini Kit< Qiagen cat #74106. RNA quality was verified using a bioanalyzer (Agilent). Reverse transcription of total RNA (1 μg) to cDNA was done with a High Capacity RNA-to-cDNA Master Mix (Applied Biosystems part of Life Technologies, Foster City, Calif., catalog number 4390777). In a 0.2 ml PCR tube, 5×Complete Master Mix (4.0 μl) and nuclease-free H20 were mixed with 1 μg RNA for a total reaction volume of 20 μL. The sample was incubated at 25° C. for 5 minutes, 42° C. for 30 minutes and then 85° C. for 5 minutes in a DNA Engine Peltier thermal cycler (Bio-Rad). qPCR target related: cathepsin L1, CTSL1, RefSeq-NM13 001912.4, amplicon length-85 bp, Assay ID Details-Hs00377632_ml; Cathepsin S, CTSS, RefSeq-NM_004079.4, amplicon length-70 bp, Assay ID Details Hs00175407_ml; GAPDH-glyceraldehyde-3-phosphate dehydrogenase, Gapdh, RefSeq-NM_00246.3, amplicon length-58 bp, Assay ID Details-Hs03929097_gl.
(§2) All primers and probes were from Applied Biosystems Assay-on-Demand. […] The GAPDH was used as an endogenous control for relative qPCR quantification. […]

[1] = test system: cathepsin L1 mRNA in Raji B-cells; assay: RT-PCR assay of cathepsin L1 mRNA in Raji B-cells; details: normalized to GAPDH mRNA and DMSO, 40 hours
Protocol: as §1, §2

Cathepsin L1 = Cathepsin L1 antibody (ctsl1) staining intensity, bright field microscopy; details: 5 μM Entinostat vs DMSO; p-value <0.0004
Protocol: In FIG. 6, samples were viewed with a Leica DMLB upright bright field microscope and a 20×/0.5NA HC PL fluortar objective (Leica Microsystems GmbH, Wetzlar, Germany). Transmitted bright light was used without contrasting methods. Gain, offset, and other acquisition settings were identical for all samples within each group. The number of nuclei was determined with auto-threshold segmentation on the cell morphology. The nuclei segmentation was further refined by size and shape of the objects created from the initial segmentation. ImagePro Plus v6.1 (Media Cybernetics, Bethesda, Md.) software was then used to determine the ctsl1 staining intensity (ctsl1 is cathepsin L1 antibody). Positive cells were established as >20DR over background for each 8bit image (0-255DR). The number of pixels over this threshold per cell was used to determine the differences between the Entinostat and DMSO groups. Each image and analysis was blinded and completed in triplicate (p-value <0.0004).

[2] = test system: cathepsin L1 mRNA in WM9 melanoma cells; assay: RT-PCR assay of cathepsin L1 mRNA in WM9 melanoma cells; details: normalized to GAPDH mRNA and DMSO
[3] = test system: CLIP occupancy of MHC class II (HLA-DR) on CIITA-4 melanoma cells, WM9 melanoma cells and Raji B cells; assay: Flow cytometry of surface CLIP and HLA-DR (CLIP/HLA-DR ratio) after HDACi treatment; details: 5 μM Entinostat or 3 μM Vorinostat, 40 hours, vs DMSO
Protocol: To determine whether HDACi's could affect anti-tumor immunity, major histocompatibility (MHC) class II positive melanoma cells were treated with HDACi's and assayed for potential alterations in the binding of MHC class II to antigenic peptides. More specifically, melanoma cells were treated with Entinostat or Vorinostat, two HDACi's currently used to treat patients. The CIITA-4 melanoma cells were previously transformed with an expression vector for the MHC class II transactivator, CIITA, which leads to constitutive MHC class II expression. The WM9 melanoma cells have naturally occurring CIITA and MHC class II expression. Raji B cells also constitutively express both CIITA and MHC class II.
Cells were cultured in RPMI (antibiotic supplements and 10% fetal calf serum) and treated with either DMSO, 5 μM Entinostat, 3 μM Vorinostat, or 400 units/ml IFN-γ. […] Surface expression of HLA-DR, the most significant MHC class II protein, was detected using flow cytometry. Surface expression of the class II associated invariant chain peptide (CLIP) was also detected using flow cytometry. […]
Samples were analyzed on a BD LSR II flow cytometer (San Jose, Calif.) equipped with 405 nm, 488 nm and 633 nm lasers using BD FacsDiva 6.1.3 software. FITC, PE and DAPI dyes were detected using 530/30, 575/26 and 450/50 band pass filters, respectively. […]

## Nc1ccccc1NC(=O)c1ccc(CNC(=O)OCc2cccnc2)cc1 [Entinostat]
Cathepsin S mRNA
  cathepsin S mRNA induction: no effect
[1]
  cathepsin L1 mRNA induction: induces cathepsin L1 mRNA
Cathepsin L1
  induction of Cathepsin L1 (ctsl1 staining intensity, FIG. 5): significant induction
[2]
  cathepsin L1 mRNA induction: induces cathepsin L1 mRNA
[3]
  amount of CLIP associated with MHC Class II on the APC surface (CLIP occupancy): reduction in the amount of CLIP

## O=C(CCCCCCC(=O)Nc1ccccc1)NO [Vorinostat, Suberoylanilide hydroxamic acid]
Cathepsin S mRNA
  cathepsin S mRNA induction: no effect
[1]
  cathepsin L1 mRNA induction: no effect
[2]
  cathepsin L1 mRNA induction: no effect
[3]
  amount of CLIP associated with MHC Class II on the APC surface (CLIP occupancy): reduction in the amount of CLIP

Reference: patent publication US20140370510A1, “MODULATION OF PEPTIDOME USING HISTONE DEACETYLASE INHIBITOR” (University of South Florida (A Florida Non-Profit …, priority 2012, published 2014)
